The record followed here is patent US20200239597A1, “AN ANTI-APOPTOTIC FUNCTION OF PKM2 AND INTRACELLULARLY EXPRESSED SCFV ANTIBODIES” (La Jolla Institute for Allergy and Immunology, priority 2017, published 2020).

The target in assay [1] is T1, WT PKM2 (Homo sapiens, UniProt P14618).
T1 construct: His (N); made in house; host or cells: Escherichia coli BL21(DE3)
The assay is described as follows: Blue native gel electrophoresis of recombinant proteins, WT PKM2. Type of assay: binding. The note with it: blue native gel. The protocol:
Left: A monovalent form of scFv 5, produced in E. coli, induced tetramer formation in WT PKM2 along with a bandshift whose magnitude was dependent on the input amount of scFv 5. […] Reaction volume was 20 μl.
(§1) Because glucose metabolism can influence cell survival (Fulda and Debatin, 2007; Moley and Mueckler, 2000; Munoz-Pinedo et al., 2012), The present inventors asked whether IB5 could rescue cells simply through stimulating PKM2's glycolytic activity. First, to analyze the antibody's interaction with PKM2, the present inventors produced monovalent scFv 5 and PIKM2 as recombinant proteins in E. coli and analyzed mixtures of these proteins, by blue native gel electrophoresis (FIG. 3A).

The next assay deals with T2, PKM2 (K270M) (Homo sapiens, UniProt P14618, K270M).
T2 construct: His (N); made in house; host or cells: Escherichia coli BL21(DE3)
The assay is described as follows: Blue native gel electrophoresis, PKM2 (K270M). The format is binding. The note with it: not shown. An excerpt: To begin to define the aspects of PKM2 function required for the IB5-induced anti-apoptotic effect, the present inventors reconstituted PKM2-null MEFs with WT or mutant forms of PKM2. The present inventors first analyzed the K270M mutation, reported to be catalytically dead (Bollenbach et al., 1999; Dombrauckas et al., 2005; Luo et al., 2011).

For assay [2], the target named is T1, WT PKM2. The assay is described as follows: Pyruvate kinase assay (Kinase-Glo Plus), WT PKM2. The format is biochemical. The note with it: PKM2 at 50 nM; ADP and PEP as substrates. On the procedure: Activity was measured by Kinase-Glo® Plus Luminescent Kinase Assay kit (promega), using ADP and PEP as substrates), with PKM2 at 50 nM. Shown are values with the basal activity of PKM2 alone subtracted out.
Pyruvate kinase activity was measured by using Kinase-Glo® Plus Luminescent Kinase Assay kit (Promega). 50-100 nM of purified WT or mutant PKM2 was added in 100 μl assay buffer containing 50 mM Tris pH7.5, 100 mM KCl, 10 mM MgCl2, 200 μM PEP, 200 μM ADP, and 3% DMSO. After a 15-min incubation, Kinase-Glo Plus™ reagent (Promega Corporation, Madison, Wis., USA) was added, according to the manufacturer's instructions. In some cases, 0-40 μM fructose 1,6-bisphosphate (FBP) and 0-150 nM scFv 5 were added.

In a further assay the test system is 293T cells. The assay is described as follows: Clonogenic survival assay after BimS transfection, 293T cells. The format is cell-based, human. On the set-up: protection of cells from BimS-induced death by the compound alone: dose or concentration left out as unconfirmed. The note with it: DASA-58 not shown; for effect on the pro-survival effect of IB5 expression: 293T cells cultured in the presence of the compound; for protection of cells from BimS-induced death by the compound alone: without IB5. The protocol: Control 293T or IB5-expressing cells were incubated with or without 27 µg/ml TEPP-46 for 3 h, then transfected with BimS cDNA in a further 24-h incubation also including TEPP-46 or vehicle. The plates were fixed and stained with crystal violet after 1 week. The total area of colonies (a measure of the total mass of proliferating cells) formed in each well from were quantified using ImageJ software; mean±SEM are shown from 3 independent experiments.
Cell viability was measured with a Countess™ Automated Cell Counter (Invitrogen) using trypan blue. For the clonogenic survival assay, 293T or MEFs cells were seeded in 6-well plates at 1×10^5 cells/well in a 2-ml volume, transfected with BimS cDNA and incubated for 24 h. Afterwards, the medium was replaced and the cells cultured for 3-4 days. Thereafter, the plates were rinsed with PBS and fixed and stained with a solution containing crystal violet (0.5% w/v) and glutaraldehyde (6% v/v) as described (Franken et al., 2006).

The test system of a further assay is Bcl-2 family proteins. The assay is described as follows: Immunoblots of Bcl-2 family proteins. Type of assay: cell-based, human. The note with it: alone or in combination; TEPP-46 27 μM. On the procedure:
Levels of several Bcl-2 family proteins were unchanged following IB5 expression or incubation with TEPP-46, or both. Cell lysates from 293T cells infected with and without IB5 and incubated with and without TEPP-46 (27 μM) were separated on SDS-12% polyacrylamide gels. Bcl-2 family proteins were detected by immunoblotting. The bands were quantified using ImageJ and normalized to the control cell lysate on the leftmost lane.
293T cells were washed with PBS and lysed with PBS containing 1% NP-40. Protein concentration was determined using Pierce™ BCA reagent (ThermoFisher; 23221, 23224). 35 μg protein was loaded in each lane of 12% SDS-PAGE gels. Proteins were transferred to nitrocellulose membrane and immunoblotted with the following primary antibodies: anti-Bax antibody (Santa Cruz N20), anti-Bak antibody (Cell Signaling 3814), anti-Bid antibody (R&D Systems AF860), anti-Bim antibody (Sigma B7929), anti-Puma antibody (Cell Signaling 4976), anti-Bcl-2 antibody (Abcam 32124), anti-Bcl-xL antibody (Cell Signaling 2764) and anti-Mcl-1 (Santa Cruz S19) at 1:1000 dilution. The secondary anti-rabbit and mouse antibodies, conjugated with HRP, were obtained from Santa Cruz and were used at 1:2000 dilution. The luminescence signal was detected using ECL reagent (ThermoFisher 32106).

The target in assay [3] is T3, pyruvate kinase M2 (PKM2) (Homo sapiens, UniProt P14618).
T3 construct: some intrabodies precipitated specific cellular proteins; endogenous in cells; host or cells: HEK293T (293T)
The assay is described as follows: Target protein immunoprecipitation (FLAG pull-down, mass spectrometry, immunoblot). The note with it: Triton X-100 extracts of 293T cells, anti-FLAG beads. Type of assay: binding. On the procedure:
FIG. 1 C is a photograph of a non-limiting SDS-PAGE gel with silver stain from an immunoprecipitation assay using antibodies encoded by DNA sequences isolated from FIG. 1B. […] Intrabodies that rescued cells from BimS-induced death were chosen for pull-down analysis as described in Methods. Left panel: Triton™-X-100 (1%) cell extracts were incubated with anti-FLAG beads, then proteins eluted with 3×FLAG peptide and separated by SDS-PAGE with silver stain. Specific bands are marked with dots; some bands (e.g. at 37 and 70 kD) are nonspecific. […] The bands near 25 kD are the scFv polypeptides, whose expression levels varied.
Flag-tagged intrabody was introduced along with a tandem Strep-tag by PCR into the same lentiviral vector used for selection. 293T cells infected with the intrabody lentivirus were incubated at 30° C. for 72 h as described above. After washing with cold PBS, 5×10^8 cells were lysed for 15 minutes on ice in lysis buffer (50 mM Tris HCl, pH 7.4, 150 mM NaCl, 1 mM EDTA, 1% Triton™ X-100). Cell lysates were clarified by centrifugation for 15 minutes at 4° C. at 16,000×g. The total protein content of the soluble fraction was quantified using the BCA assay. For pull-down experiments, 10 mg of protein lysate was incubated with 200 al of EZview™ Red anti-FLAG® M2 Affini-ty Gel (Sigma-Aldrich) for 2 h at 4° C. Beads were washed 3 times in wash buffer (50 mM Tris HCl, pH 7.4, 150 mM NaCl, 1 mM EDTA, 0.1% Triton X-100). Elution was performed under native conditions by competition with 3×FLAG peptide following the manufacturer's protocol. Eluates were used for the second step purification using Strep-Tactin Superflow Plus™ [Qiagen], following the manufacturer's instructions. The final two-step purified protein was used for SDS-PAGE analysis. Bands of interest were cut out from the gel and subjected to in-gel digestion with trypsin (Promega, Fitchburg, Wis., USA) followed by MALDI TOF/TOF mass spectrometry analysis (Biomolecular and Proteomics Mass Spectrometry Facility, University of California at San Diego).

In the next assay the target is T4, recombinant PKM1 (UniProt P14618-2 1-531).
T4 construct: Ran as a constitutive tetramer; also called PIKM1; M1 isoform of pyruvate kinase
The assay is described as follows: in vitro experiments with recombinant proteins (blue native gel bandshift; scFv 5 failed to shift PKM1).
Description: as §1, with “3A). […] Thus, the intrabody bound directly to PKM2, promoting its stable tetramerization, and moreover, higher input ratios of scFv:PKIM2 produced increased binding stoichiometry.” for “3A).”

T3 sequence (P14618 whole entry): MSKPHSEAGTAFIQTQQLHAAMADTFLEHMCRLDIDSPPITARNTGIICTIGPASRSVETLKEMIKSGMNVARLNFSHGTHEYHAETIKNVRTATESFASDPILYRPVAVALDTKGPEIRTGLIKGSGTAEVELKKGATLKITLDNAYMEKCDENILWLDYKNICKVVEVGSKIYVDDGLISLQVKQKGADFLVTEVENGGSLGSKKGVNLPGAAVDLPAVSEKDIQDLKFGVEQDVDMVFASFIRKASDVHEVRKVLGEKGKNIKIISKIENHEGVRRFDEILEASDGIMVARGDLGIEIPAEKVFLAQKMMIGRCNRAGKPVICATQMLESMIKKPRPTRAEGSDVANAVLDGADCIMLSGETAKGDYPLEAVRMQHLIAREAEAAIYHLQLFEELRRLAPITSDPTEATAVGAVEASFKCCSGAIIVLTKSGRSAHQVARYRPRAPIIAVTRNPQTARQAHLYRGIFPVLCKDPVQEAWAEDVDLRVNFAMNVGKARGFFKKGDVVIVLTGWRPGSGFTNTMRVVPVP
T1 sequence (P14618 whole entry): as above
T2 sequence (P14618 whole entry K270M): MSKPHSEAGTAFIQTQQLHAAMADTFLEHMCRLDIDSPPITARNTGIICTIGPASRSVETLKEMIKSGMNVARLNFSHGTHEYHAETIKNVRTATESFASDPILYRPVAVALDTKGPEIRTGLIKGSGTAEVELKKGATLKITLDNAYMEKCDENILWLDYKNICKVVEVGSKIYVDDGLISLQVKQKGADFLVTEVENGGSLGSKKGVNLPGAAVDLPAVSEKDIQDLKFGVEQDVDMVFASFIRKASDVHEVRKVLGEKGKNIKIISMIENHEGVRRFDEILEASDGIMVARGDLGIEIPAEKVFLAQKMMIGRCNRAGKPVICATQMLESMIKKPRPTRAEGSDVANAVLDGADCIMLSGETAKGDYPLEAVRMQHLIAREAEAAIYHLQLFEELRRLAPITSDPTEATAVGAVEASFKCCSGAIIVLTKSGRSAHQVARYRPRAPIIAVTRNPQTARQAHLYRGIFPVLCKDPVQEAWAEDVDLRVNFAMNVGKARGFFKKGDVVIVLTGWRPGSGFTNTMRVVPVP
T4 sequence (P14618 other isoform, or with tags, fused parts or gaps): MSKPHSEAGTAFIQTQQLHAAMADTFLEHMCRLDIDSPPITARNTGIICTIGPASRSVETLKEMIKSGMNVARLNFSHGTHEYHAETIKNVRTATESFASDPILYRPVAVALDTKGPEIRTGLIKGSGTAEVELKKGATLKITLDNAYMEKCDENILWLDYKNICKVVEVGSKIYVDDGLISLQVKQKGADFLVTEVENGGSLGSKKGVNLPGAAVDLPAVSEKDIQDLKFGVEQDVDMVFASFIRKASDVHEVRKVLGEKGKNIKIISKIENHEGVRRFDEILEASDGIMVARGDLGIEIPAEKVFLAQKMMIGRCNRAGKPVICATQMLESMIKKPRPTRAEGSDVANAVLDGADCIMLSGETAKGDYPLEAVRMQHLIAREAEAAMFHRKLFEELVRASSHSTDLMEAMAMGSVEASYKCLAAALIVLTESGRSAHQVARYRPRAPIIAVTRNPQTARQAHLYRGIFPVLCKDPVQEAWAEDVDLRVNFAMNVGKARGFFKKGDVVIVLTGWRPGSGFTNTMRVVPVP

Turning to `O=C(COP(=O)(O)O)[C@@H](O)[C@H](O)[C@H](O)COP(=O)(O)O` [FBP, fructose 1,6-bisphosphate, reference compound], the “tetramer formation of WT PKM2” value on WT PKM2 [1] is “produced the tetramer form”. In addition, on PKM2 (K270M), the “stable tetramer formation of PKM2 (K270M)” value is “prevented the protein from forming stable tetramers”. Also, at WT PKM2 [2], the “glycolytic (pyruvate kinase) activity of WT PKM2” value is listed as “Stimulation of PKM2 activity”.

For the molecule `Cn1c2cc([S+](C)[O-])sc2c2cnn(Cc3cccc(N)c3)c(=O)c21` (centres unmarked) [TEPP-46], in the assay on 293T cells, the “effect on the pro-survival effect of IB5 expression” value is listed as “enhanced the pro-survival effect of IB5 expression to a modest but statistically significant extent” and the “protection of cells from BimS-induced death by the compound alone” value is on record as “did not protect cells”. In addition, the “levels of Bax, Bak, Bid, Bim, Puma, Bcl-2, Bcl-xL and Mcl-1” value in the assay on Bcl-2 family proteins was “failed to change the mitochondrial levels”.

On to `Nc1cccc(S(=O)(=O)N2CCCN(S(=O)(=O)c3ccc4c(c3)OCCO4)CC2)c1` [DASA-58], for which, in the assay with 293T cells, the “effect on the pro-survival effect of IB5 expression” value is “enhanced the pro-survival effect of IB5 expression to a modest but statistically significant extent” and the “protection of cells from BimS-induced death by the compound alone” value is given as “did not protect cells”.

B1: IB12: intrabody clone (scFv) that pulls down PKM2, SEQ ID NO: 1 (protein)
scFv: MAQVQLVQSGGGLVKPGGSLRLSCTASGFTFSTYWMHWFRQAPGKGLLWVSRINPDGSATIYADSVKGRFTISRDNAKNSLYLQMNSLRDEDTAVYYCARGHPLSGYPGYFDYWGQGTLVTVSSGGGGSGGGGSGVADPRLCSLSRLPSLHLLEHQQSHLHFTSGINVGAYRIYWYQQKPGSPPQFLLRYKSDSDKQQGSGVPSRFSGSRDASANAGILLISGLRSEDEADYYCAIWHSSAWVFGGGTKLTVLWGSGLASVDYKDDDDK
modifications: Artificial intrabody clone 12
B1: the “protein pulled down from cell extracts” value in assay [3] was “pulled down a 55-kD protein now identified as pyruvate kinase M2”.

B2: monovalent scFv 5 produced as recombinant protein in E. coli (scFv)
scFv: MAQVQLVETGPGLVKPSETLSLRCTVSGGSFDNYYWNWIRQPPGKGLEYIGYVFPSTGATNYNPSLGSRVTISLDTSKNQFSLTLTSVTTADTAIYYCVRSGHDLWTGSTWFDPWGQWTTVTVSSGGGGSGGGGSGGGGSEIVLTQSPGTLSLSPGERATLSCRASQSVSSSYLAWYQQKPGQAPRLLIYGASSRATGIPDRFSGSGSGTDFTLTISRLEPEDIAVYYCQQRSNWPRTFGQGTKVEIKRGLGGLASVDYKDDDDK
notes: also called purified scFv 5; recombinant scFv 5
For B2, the binding result with recombinant PKM1 is listed as “no binding”.

B3: Clone 7: independent scFv isolate with DNA sequence identical to scFv 5 (protein)
scFv: B2 scFv
For the molecule B3, in assay [3], the “protein pulled down from cell extracts” value is “pulled down a 55-kD protein now identified as pyruvate kinase M2”.
